{"source": "paper PMC10518717", "about": "“High-Throughput Screening and Proteomic Characterization of Compounds Targeting Myeloid-Derived Suppressor Cells” (Molecular & Cellular Proteomics : MCP, 2023)", "test_system": "human PMN-MDSC", "assay": "Human PMN-MDSC assay (PMN-MDSC/CD8+ T cell/DC coculture, IFNγ HTRF)", "assay_type": "cell-based", "settings": "10 μM", "text": "CD34+ cells were isolated from fresh human blood from healthy donors, obtained from the Health Services unit of the Healthcare Business of Merck KGaA, Darmstadt, Germany. First, peripheral blood mononuclear cells (PBMC) were isolated via density centrifugation, and then the target cells were isolated via magnetic bead labeling using the EasySep Human CD34 Positive Selection Kit II (Stemcell Technologies #17856). After isolation, the CD34+ cells were cultivated in cultivation medium (StemSpan SFEM II (Stemcell Technologies #09655) + 10% (1×) StemSpan CD34+ Expansion (Stemcell Technologies #02691)) for 10 to 12 days. At that point, the media was exchanged for fresh […] medium (Gibco #31870), supplemented with 10% FCS, 2 mM L-glutamine, 100 U/ml penicillin/streptomycin, 1 mM sodium-pyruvate, 1 mM non-essential amino acids, 50 μM ß-mercaptoethanol, and 100 ng/ml human G-CSF (PeproTech, AF-300-23), and the cells were incubated for 10 days in order to derive human PMN-MDSC.\nMonocytes were isolated from fresh human blood from healthy donors, obtained from Health Services unit of the Healthcare Business of Merck KGaA, Darmstadt, Germany. […]\nPMN-MDSC and DC were differentiated as described above. […] At that point, the supernatant was transferred and IFNγ was measured using a human INFγ HTRF kit (Cisbio #62[…]) following standard assay protocol provided by the manufacturer. The data was analyzed using Genedata software (GeneData Inc, https://www.genedata.com/) with 0% defined by the DMSO-treated wells and 100% effect defined by the wells without PMN-MDSC. […]\nAfter confirming the physiological and pharmacological suitability of the NUP-MDSC model, we developed a high-throughput screen for the identification of potential MDSC modulators (Fig. 4A and supplemental Fig. S3). […] After 72 h, T cell activity was assessed by recording T cell proliferation and IFN-γ secretion. […] Compounds were declared hits if reversing the suppression effect of NUP-MDSC on T cells with ≥50% in either readout resulting in 392 hit compounds (Fig. 4B). […]", "data": [{"compound": "CCOC(=O)c1nnn(-c2nn3nnnc3c3ccccc23)c1C", "note": "[compound 2]", "values": [{"measurement": "% effect on IFNγ secretion", "setting": "mild effect in 4 of 23 donor combinations", "value": "< 40", "unit": "%"}, {"measurement": "activity on IFNγ secretion", "setting": "some donors of 23 donor combinations", "value": "no activity"}, {"measurement": "% effect on IFNγ secretion", "setting": "strong effect in 5 of 23 donor combinations", "value": "> 40", "unit": "%"}]}]}
